These are literature values, as cited in article PMC11647681, “Discovery of Non-Covalent Inhibitors for SARS-CoV-2 PLpro: Integrating Virtual Screening, Synthesis, and Experimental Validation” (ACS Medicinal Chemistry Letters, 2024).

This data set deals with SARS-CoV-2, and its variants. On the set-up: method as in PMID 38547259. The settings on record: cited from earlier work.

Take `CCn1ccc(-c2cc(-c3cnn(C)c3)cc([C@@H](C)NC(=O)c3cc(OCCN(C)C)ccc3C)c2)n1` [Jun12682]: the “activity against SARS-CoV-2, and its variants, in vivo” value is on record as “confirmed”.
